Laboratory results: ChEMBL document CHEMBL1201862, “PubChem BioAssay data set” (2004)
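In this assay, cells in 96-well plates receive the compound at five concentrations for 48 hours. Endpoints are linearly interpolated between the surrounding concentrations. GI50 is the concentration that inhibits growth by half.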 Calls of active or inactive are those of the source. Rule as the data show it: active = GI50 up to about 1.1 µM and inactive = higher.

Legend:
Assay in all cases: NCI tumour cell line growth inhibition, 48 h
[1] = tested on: HCT-15
[2] = tested on: NCI-H460
[3] = tested on: M19-MEL
[4] = tested on: SK-MEL-5
[5] = tested on: NCI-H226
[6] = tested on: IGROV-1
[7] = tested on: SW-620
[8] = tested on: SR
[9] = tested on: NCI-H23
[10] = tested on: K562
[11] = tested on: UO-31
[12] = tested on: SF-295
[13] = tested on: TK-10
[14] = tested on: NCI-H522
[15] = tested on: KM12
[16] = tested on: ACHN
[17] = tested on: U-251

Row | Structure (SMILES) | GI50 [1] [µM] | GI50 [2] | GI50 [3] | GI50 [4] | GI50 [5] | GI50 [6] | GI50 [7] | GI50 [8] | GI50 [9] | GI50 [10] | GI50 [11] | GI50 [12] | GI50 [13] | GI50 [14] | GI50 [15] | GI50 [16] | GI50 [17]
1 | COCCOCOC(C)(C)[C@H](CCOC(C)=O)O[Si](c1ccccc1)(c1ccccc1)C(C)(C)C | 20.3 | 5.74 µM (inactive) | 13.1 µM (inactive) | 10.5 µM (inactive) | 3.72 µM (inactive) | 23.6 µM (inactive) | 28.1 µM (inactive) | 4.42 µM (inactive) | 10.5 µM (inactive) | 5.75 µM (inactive) | 13.5 µM (inactive) | 16 µM (inactive) | 22.8 µM (inactive) | 5.52 µM (inactive) | 15.4 µM (inactive) | 15.2 µM (inactive) | 12.3 µM (inactive)
2 | Cc1ccc(-n2nc(C(OC3OC(CO)C(O)C(O)C3O)C(O)CO)c3nc4cc(C)c(C)cc4nc32)cc1 (configuration not stated) | > 100 | > 100 µM (inactive) | > 100 µM (inactive) | – | – | – | – | – | > 100 µM (inactive) | > 100 µM (inactive) | > 100 µM (inactive) | > 100 µM (inactive) | > 100 µM (inactive) | > 100 µM (inactive) | > 100 µM (inactive) | > 100 µM (inactive) | > 100 µM (inactive)
3 | CCCC(=O)N[C@H]1C2C3CC4C5CC(C42)C1(C)C53 (some centres not stated) | > 100 | > 100 µM (inactive) | > 100 µM (inactive) | > 100 µM (inactive) | > 100 µM (inactive) | > 100 µM (inactive) | > 100 µM (inactive) | > 100 µM (inactive) | – | > 100 µM (inactive) | > 100 µM (inactive) | > 100 µM (inactive) | > 100 µM (inactive) | > 100 µM (inactive) | > 100 µM (inactive) | > 100 µM (inactive) | > 100 µM (inactive)
4 | NC(=O)Cn1c(=O)[nH]c(=O)c2[nH]cnc21 | > 100 | > 100 µM (inactive) | > 100 µM (inactive) | > 100 µM (inactive) | > 100 µM (inactive) | > 100 µM (inactive) | > 100 µM (inactive) | > 100 µM (inactive) | > 100 µM (inactive) | > 100 µM (inactive) | > 100 µM (inactive) | – | > 100 µM (inactive) | > 100 µM (inactive) | > 100 µM (inactive) | > 100 µM (inactive) | > 100 µM (inactive)
5 | N#CC(/C(CCC(=O)Nc1ccc(Cl)cc1)=N/NC(=O)c1cc2ccccc2cc1O)c1ccccc1 (configuration not stated) | – | 30.7 µM (inactive) | 33.7 µM (inactive) | 19.4 µM (inactive) | 42.2 µM (inactive) | 31.7 µM (inactive) | 50.4 µM (inactive) | – | 39.3 µM (inactive) | – | 36.8 µM (inactive) | 39.8 µM (inactive) | 56.5 µM (inactive) | – | 35.9 µM (inactive) | 24.9 µM (inactive) | 32.8 µM (inactive)
6 | O=C(NCCCCCCNC(=O)OCCSCCn1cc(C(=O)NC(=O)OCc2ccccc2)c(=O)[nH]c1=O)OCCSCCn1cc(C(=O)NC(=O)OCc2ccccc2)c(=O)[nH]c1=O | > 100 | > 100 µM (inactive) | > 100 µM (inactive) | > 100 µM (inactive) | > 100 µM (inactive) | > 100 µM (inactive) | > 100 µM (inactive) | – | > 100 µM (inactive) | > 100 µM (inactive) | 55.8 µM (inactive) | > 100 µM (inactive) | > 100 µM (inactive) | > 100 µM (inactive) | > 100 µM (inactive) | > 100 µM (inactive) | > 100 µM (inactive)
7 | N#CC(C#N)=C1NC(=O)C(c2ccccc2)C(=O)N1 (configuration not stated) | > 100 | > 100 µM (inactive) | > 100 µM (inactive) | > 100 µM (inactive) | > 100 µM (inactive) | > 100 µM (inactive) | > 100 µM (inactive) | > 100 µM (inactive) | > 100 µM (inactive) | > 100 µM (inactive) | > 100 µM (inactive) | > 100 µM (inactive) | > 100 µM (inactive) | > 100 µM (inactive) | > 100 µM (inactive) | – | > 100 µM (inactive)
8 | Cc1cccc(NC(=O)/C(=N\N)C(c2cnc3ccc([N+](=O)[O-])cc3n2)[N+](=O)[O-])c1C (configuration not stated) | 53.8 | > 100 µM (inactive) | > 100 µM (inactive) | > 100 µM (inactive) | > 100 µM (inactive) | > 100 µM (inactive) | > 100 µM (inactive) | > 100 µM (inactive) | > 100 µM (inactive) | – | > 100 µM (inactive) | > 100 µM (inactive) | > 100 µM (inactive) | 40.2 µM (inactive) | 41.8 µM (inactive) | > 100 µM (inactive) | –
9 | O=C1NCC2=C1CCC1c3ccccc3CCN21 (configuration not stated) | > 100 | > 100 µM (inactive) | > 100 µM (inactive) | > 100 µM (inactive) | > 100 µM (inactive) | > 100 µM (inactive) | > 100 µM (inactive) | > 100 µM (inactive) | > 100 µM (inactive) | – | > 100 µM (inactive) | > 100 µM (inactive) | > 100 µM (inactive) | > 100 µM (inactive) | > 100 µM (inactive) | > 100 µM (inactive) | > 100 µM (inactive)
